From patent publication US12063914B2, “DNA sequence that increases odorant receptor representation in the olfactory system” (Research Foundation of the City University of New York, priority 2015, dated 2024)

Target: T1, M71 OR (Mus musculus, UniProt Q60893)
T1 construct: the increase of OSNs expressing the M71 OR results in the coalescence of labeled axons; expressed in transfected cells; host or cells: olfactory sensory neurons of living transgenic mice (4•M71Cα, 5•M71Cα), made by pronuclear injection of the M71 minigene
T1 sequence (Q60893 1-309): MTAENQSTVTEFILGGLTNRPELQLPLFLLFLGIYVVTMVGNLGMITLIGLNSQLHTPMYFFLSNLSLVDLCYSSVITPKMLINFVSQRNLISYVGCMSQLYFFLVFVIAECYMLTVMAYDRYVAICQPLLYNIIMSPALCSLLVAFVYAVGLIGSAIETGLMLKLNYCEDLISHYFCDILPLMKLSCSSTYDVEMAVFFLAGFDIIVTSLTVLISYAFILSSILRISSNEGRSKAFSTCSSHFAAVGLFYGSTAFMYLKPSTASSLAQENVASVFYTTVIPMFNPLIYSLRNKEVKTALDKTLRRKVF
Assay: Two-bottle discrimination behavioral avoidance task (odor detection threshold) with 24dMACP
Assay type: in vivo
Method: Sensitivity studies performed in Wistar rat neonates and adults have shown that the highest sensitivity to an odor (lowest threshold) correlates with the highest OSN density in the MOE. […] Therefore, it was desirable to assess whether detection of the most robust M71 ligand is amplified in this M71 line. An avoidance task was used in which the odorant 24dMACP is added to drinking water and becomes an aversive stimulus associated with injection of Lithium Chloride (LiCl), a compound known to induce gastric malaise. After conditioning homozygous 4•M71Cα animals and their WT littermates to water containing a 10-4 dilution of 24dMACP, the animals are given the choice between plain water and water with decreasing concentrations of 24dMACP (10^−4, 10^−6, 5×10^−7 and 10^−7). Note that all tested animals are homozygous for M71G, so even WT have a functional M71 OR.
The results are presented as a preference index (PI) for the odorized water for each group of animals which is calculated as the amount of the odorized water consumed divided by the total amount of liquid (odor and no-odor water) consumed over a 24 hr time period (FIG. 3A). A PI of 50% reflects no preference of the animal. […] When presented with 10^−4 and 10^−6 dilutions, both conditioned 4•M71Cα homo and WT animals show a clear aversion towards 24dMACP reflected through an average PI for 24dMACP of about 10%. However, when 24dMACP is delivered at 10^−7 all animals fail to detect the presence of the odor with an average PI of 53.41% for the WT (n=4) and 62.67% for the homozygous animals (n=8).
To compare specific odorant sensitivity between the 5•M71Cα and the 4•M71Cα line, the 2-bottle discrimination behavioral task was performed with 24dMACP as described above (FIG. 3B). […] Even though the same but slightly more significant 0.3 log decrease in odorant detection threshold is observed in the 5•M71Cα line, it is important to mention that 5•M71Cα hemi animals were used which have about 1.6% of their OSNs expressing M71 (similar to the 4•M71Cα homo animals with about 2% M71 expressing OSNs).
Olfactory behavior test: A two-bottle discrimination test was performed as previously described. Since the mice are tested for the ability to detect a single odor in drinking water at increasingly lower concentrations, this discrimination assay is also considered a detection threshold test. Mice 8 weeks old were individually housed and given food ad libitum but restricted access to saccharin-phthalic acid solution (2.1×10^−2 M sodium saccharin and 10^−3M phthalic acid pH 6.5) for 1 h twice a day for two days before the assay begins. This ensures mice would commence drinking the solution during the conditioning. On day 3 (conditioning day) mice are exposed to sodium saccharine phthalic acid (SSPA) solution with 1 dilution of odorized water for 10 minutes. Immediately after, they are injected with lithium chloride intraperitoneally (15 μl/g body weight of a 0.6 M solution) to induce the aversive malaise and lethargy state. After two hours mice are returned to their home cage and given access to two bottles of drinking water; they are given the choice between SSPA solution containing a 10^−4 dilution of the odor versus the non-odorized SSPA solution. During the following 3 days, every 24 hours, the location of the bottles is reversed and the concentration of the odorized solution is decreased to 10^−6, 10^−7 and 0.5×10^−6, respectively. Every day both bottles are weighed to determine the amount of liquid consumed. A preference index was calculated as the amount of odorized solution consumed divided by the total amount of water solution consumed for each mouse for every 24 hour test period at each odor concentration. Student's t test was performed to test statistical significance, assuming two-tailed distribution and two-sample unequal variance. Values are mean±SEM and are plotted on a LOG scale.

- average PI (5•M71Cα hemi group, dilution 5×10^−7): 19.62%
- decrease in odorant detection threshold (5•M71Cα line vs WT (same as 4•M71Cα line)): 0.3 log
- average PI (WT group of the 5•M71Cα experiment, dilution 5×10^−7): 55.32%
- average PI (conditioned 4•M71Cα homo and WT animals, 10^−4 and 10^−6 dilutions): about 10%
- PI (conditioned 4•M71Cα homozygous mutants, 5×10^−7 dilution): 26.12%
- average PI (conditioned 4•M71Cα homozygous, 10^−7 dilution): 62.67%
- PI (conditioned WT (littermates of 4•M71Cα), 5×10^−7 dilution): 62.79%
- PI (conditioned WT, 10^−4 dilution): 11.84%
- average PI (conditioned WT, 10^−7 dilution): 53.41%
SMILES: CC(=O)c1ccc(C)cc1C [24dMACP, 2,4-dimethyl acetophenone]
